Experimental data from patent US8623870B2, “Pyridazinone derivatives” (Merck Patent GmbH, priority 2009, dated 2014).

Legend:
[1] = biological target: T1, Met kinase (Homo sapiens, UniProt P08581); test: Met kinase inhibition (cell); format: cell-based
Target sequence in this assay (P08581 25-1390): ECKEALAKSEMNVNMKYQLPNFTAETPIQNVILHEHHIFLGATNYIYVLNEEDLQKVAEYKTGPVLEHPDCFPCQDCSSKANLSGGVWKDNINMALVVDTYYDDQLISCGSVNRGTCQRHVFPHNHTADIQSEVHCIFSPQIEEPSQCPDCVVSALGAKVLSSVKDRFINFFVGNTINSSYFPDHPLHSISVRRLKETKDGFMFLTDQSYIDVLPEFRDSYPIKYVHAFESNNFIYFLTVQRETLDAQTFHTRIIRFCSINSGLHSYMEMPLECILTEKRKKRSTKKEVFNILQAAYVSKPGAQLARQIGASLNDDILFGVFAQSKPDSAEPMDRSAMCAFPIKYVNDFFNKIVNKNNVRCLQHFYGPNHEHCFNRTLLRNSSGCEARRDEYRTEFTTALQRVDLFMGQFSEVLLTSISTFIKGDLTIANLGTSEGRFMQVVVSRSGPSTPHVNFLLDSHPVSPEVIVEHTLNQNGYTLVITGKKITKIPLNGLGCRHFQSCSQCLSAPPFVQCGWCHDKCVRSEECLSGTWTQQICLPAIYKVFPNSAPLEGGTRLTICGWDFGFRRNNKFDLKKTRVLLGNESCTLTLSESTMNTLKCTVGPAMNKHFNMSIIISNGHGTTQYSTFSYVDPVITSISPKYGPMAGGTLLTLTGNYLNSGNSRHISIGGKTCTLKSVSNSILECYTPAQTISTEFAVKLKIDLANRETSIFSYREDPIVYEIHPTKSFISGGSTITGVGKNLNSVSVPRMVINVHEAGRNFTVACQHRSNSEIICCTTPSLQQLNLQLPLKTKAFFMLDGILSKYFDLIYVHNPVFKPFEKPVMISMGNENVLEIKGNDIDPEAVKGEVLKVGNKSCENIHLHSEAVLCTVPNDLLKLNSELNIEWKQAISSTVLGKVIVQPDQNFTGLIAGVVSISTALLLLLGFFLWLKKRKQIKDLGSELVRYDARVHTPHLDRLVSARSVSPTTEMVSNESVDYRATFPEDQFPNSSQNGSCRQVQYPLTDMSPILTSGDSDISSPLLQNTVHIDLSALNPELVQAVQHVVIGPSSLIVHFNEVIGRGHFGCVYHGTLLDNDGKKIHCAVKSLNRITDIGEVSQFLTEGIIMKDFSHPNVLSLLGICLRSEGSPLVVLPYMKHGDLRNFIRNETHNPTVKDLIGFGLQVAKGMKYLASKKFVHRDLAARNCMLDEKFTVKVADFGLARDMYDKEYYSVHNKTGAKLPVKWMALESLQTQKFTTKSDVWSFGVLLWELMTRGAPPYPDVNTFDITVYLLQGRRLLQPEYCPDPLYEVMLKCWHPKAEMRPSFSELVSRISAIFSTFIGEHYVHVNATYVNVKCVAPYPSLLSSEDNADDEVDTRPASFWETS

[2] = biological target: T1, Met kinase; test: Met kinase inhibition, flashplate method (enzyme); format: biochemical; parameters: 6His (N); purchased Upstate 14-526; host or cells: Sf21 insect cells (S. frugiperda), baculovirus
Text: According to the manufacturer's data (Met, active, upstate, catalogue No. 14-526), Met kinase is expressed for the purposes of protein production in insect cells (Sf21; S. frugiperda) and subsequent affinity-chromatographic purification as “N-terminal 6His-tagged” recombinant human protein in a baculovirus expression vector.
The test plates used are 96-well Flashplate® microtitre plates from Perkin Elmer (Cat. No. SMP200). The components of the kinase reaction described below are pipetted into the assay plate. The Met kinase and the substrate poly Ala-Glu-Lys-Tyr, (pAGLT, 6:2:5:1), are incubated for 3 hrs at room temperature with radioactively labelled ^33P-ATP in the presence and absence of test substances in a total volume of 100 μl. The reaction is terminated using 150 μl of a 60 mM EDTA solution. After incubation for a further 30 min at room temperature, the supernatants are filtered off with suction, and the wells are washed three times with 200 μl of 0.9% NaCl solution each time. The measurement of the bound radioactivity is carried out by means of a scintillation measuring instrument (Topcount NXT, Perkin-Elmer).
The full value used is the inhibitor-free kinase reaction. This should be approximately in the range 6000-9000 cpm. The pharmacological zero value used is staurosporin in a final concentration of 0.1 mM. The inhibitory values (IC50) are determined using the RS1_MTS program.
• 30 μl of assay buffer • 10 μl of substance to be tested in assay buffer with 10% of DMSO • 10 μl of ATP (final concentration 1 μM cold, 0.35 μCi of ^33P-ATP) • 50 μl of Met kinase/substrate mixture in assay buffer; • (10 ng of enzyme/well, 50 ng of pAGLT/well)
Assay Buffer: • 50 mM HEPES • 3 mM magnesium chloride • 3 μM sodium orthovanadate • 3 mM manganese(II) chloride • 1 mM dithiothreitol (DTT) • pH=7.5 (to be set using sodium hydroxide)
Stop Solution: • 60 mM Titriplex III (EDTA) • ^33P-ATP: Perkin-Elmer; • Met kinase: Upstate, Cat. No. 14-526, Stock 1 μg/10 μl; spec. activity 954 U/mg; • Poly-Ala-Glu-Lys-Tyr, 6:2:5:1: Sigma Cat. No. P1152 In-vivo Tests
Target sequence in this assay (P08581 974-1390 limits assumed): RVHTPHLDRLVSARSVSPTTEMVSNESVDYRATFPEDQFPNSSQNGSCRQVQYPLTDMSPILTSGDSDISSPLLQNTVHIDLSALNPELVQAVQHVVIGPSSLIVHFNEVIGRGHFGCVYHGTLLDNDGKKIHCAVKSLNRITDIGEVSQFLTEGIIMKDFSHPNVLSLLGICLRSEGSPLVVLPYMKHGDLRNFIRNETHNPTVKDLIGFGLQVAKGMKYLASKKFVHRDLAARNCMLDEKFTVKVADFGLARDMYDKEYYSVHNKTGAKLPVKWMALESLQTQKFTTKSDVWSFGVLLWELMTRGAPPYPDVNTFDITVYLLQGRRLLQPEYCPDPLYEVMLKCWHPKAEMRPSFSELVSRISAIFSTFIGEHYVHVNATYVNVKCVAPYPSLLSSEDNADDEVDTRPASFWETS

SMILES	IC50 [1] [nM]	IC50 [2] [nM]
O=c1ccc(-c2cc(F)cc(F)c2)nn1Cc1cccc(-c2noc(-c3ccco3)n2)c1 [Compound A9, 6-(3,5-difluorophenyl)-2-[3-(5-furan-2-yl-1,2,4-oxadiazol-3-yl)benzyl]-2H-pyridazin-3-one]	100 to 10000	–
O=c1ccc(-c2cccc(F)c2)nn1Cc1cccc(-c2ncc(-c3cnn(C4CCNCC4)c3)s2)c1 [Compound A2, 6-(3-fluorophenyl)-2-{3-[5-(1-piperidin-4-yl-1H-pyrazol-4-yl)thiazol-2-yl]benzyl}-2H-pyridazin-3-one]	1 to 100	1 to 100
O=c1ccc(-c2cc(F)cc(F)c2)nn1Cc1cccc(-c2ncc(-c3cnn(C4CCNCC4)c3)o2)c1 [Compound A6, 6-(3,5-difluorophenyl)-2-{3-[5-(1-piperidin-4-yl-1H-pyrazol-4-yl)oxazol-2-yl]benzyl}-2H-pyridazin-3-one]	1 to 100	1 to 100
O=c1ccc(-c2cc(F)cc(F)c2)nn1Cc1cccc(-c2ncc(-c3cnn(C4CCNCC4)c3)s2)c1 [Compound A1, 6-(3,5-difluorophenyl)-2-{3-[5-(1-piperidin-4-yl-1H-pyrazol-4-yl)thiazol-2-yl]benzyl}-2H-pyridazin-3-one]	1 to 100	1 to 100
Cn1cc(-c2nc(-c3cccc(Cn4nc(-c5cc(F)cc(F)c5)ccc4=O)c3)no2)cn1 [Compound A8, 6-(3,5-difluorophenyl)-2-{3-[5-(1-methyl-1H-pyrazol-4-yl)-1,2,4-oxadiazol-3-yl]benzyl}-2H-pyridazin-3-one]	1 to 100	1 to 100
Cc1ccc(-c2nc(-c3cccc(Cn4nc(-c5cc(F)cc(F)c5)ccc4=O)c3)no2)cn1 [Compound A10, 6-(3,5-difluorophenyl)-2-{3-[5-(6-methylpyridin-3-yl)-1,2,4-oxadiazol-3-yl]-benzyl}-2H-pyridazin-3-one]	1 to 100	1 to 100
